How the values were obtained:
Test in all cases: cells
[1] = system: D-392MG; type: functional, cell-based, Homo sapiens; conditions: Homo sapiens, D-392MG
[2] = system: DK-MG; type: functional, cell-based, Homo sapiens; conditions: Homo sapiens, DK-MG;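 further: growth inhibition of DK-MG cells, read out with a cell viability assay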
Description: SANGER: Inhibition of human DK-MG cell growth in a cell viability assay.

[3] = system: EKVX; type: functional, cell-based, Homo sapiens; conditions: Homo sapiens, EKVX;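 further: growth inhibition of human EKVX cells, read out with a cell viability assay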
Description: SANGER: Inhibition of human EKVX cell growth in a cell viability assay.

[4] = system: ES1; type: functional, cell-based, Homo sapiens; conditions: Homo sapiens, ES1;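 further: growth inhibition of ES1 cells, read out with a cell viability assay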
Description: SANGER: Inhibition of human ES1 cell growth in a cell viability assay.

[5] = system: GCIY; type: functional, cell-based, Homo sapiens; conditions: Homo sapiens, GCIY;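 further: growth inhibition of the human GCIY cell line, read out by a cell viability assay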
Description: SANGER: Inhibition of human GCIY cell growth in a cell viability assay.

[6] = system: GCT; type: functional, cell-based, Homo sapiens; conditions: Homo sapiens, GCT;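 further: GCT cell line proliferation inhibition, read out with a cell viability assay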
Description: SANGER: Inhibition of human GCT cell growth in a cell viability assay.

[7] = system: HCC1187; type: functional, cell-based, Homo sapiens; conditions: Homo sapiens, HCC1187;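 further: growth inhibition of HCC1187 cells, read out with a cell viability assay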
Description: SANGER: Inhibition of human HCC1187 cell growth in a cell viability assay.

[8] = system: HN; type: functional, cell-based, Homo sapiens; conditions: Homo sapiens, HN
Description: SANGER: Inhibition of human HN cell growth in a cell viability assay.

[9] = system: HSC-3; type: functional, cell-based, Homo sapiens; conditions: Homo sapiens, HSC-3
Description: SANGER: Inhibition of human HSC-3 cell growth in a cell viability assay.

[10] = system: HT1197; type: functional, cell-based, Homo sapiens, HT-1197; conditions: Homo sapiens, HT1197
Description: SANGER: Inhibition of human HT-1197 cell growth in a cell viability assay.

[11] = system: HT-3; type: functional, cell-based, Homo sapiens; conditions: Homo sapiens, HT-3;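 further: growth inhibition measured with a cell viability readout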
Description: SANGER: Inhibition of human HT-3 cell growth in a cell viability assay.

[12] = system: HuTu80; type: functional, cell-based, Homo sapiens, HUTU-80; conditions: Homo sapiens, HuTu80;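 further: growth inhibition of HuTu80 human cells, determined with a cell viability readout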
Description: SANGER: Inhibition of human HUTU-80 cell growth in a cell viability assay.

[13] = system: KM12; type: functional, cell-based, Homo sapiens; conditions: Homo sapiens, KM12;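 further: KM12 cell growth inhibition, read out with a cell viability assay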
Description: SANGER: Inhibition of human KM12 cell growth in a cell viability assay.

[14] = system: KYSE-180; type: functional, cell-based, Homo sapiens; conditions: Homo sapiens, KYSE-180;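 further: growth inhibition of KYSE-180 cells, read out with a cell viability assay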
Description: SANGER: Inhibition of human KYSE-180 cell growth in a cell viability assay.

[15] = system: KYSE-520 cell line; type: functional, cell-based, Homo sapiens; conditions: Homo sapiens, KYSE-520;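 further: growth inhibition of human KYSE-520 cells, read out with a viability assay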
Description: SANGER: Inhibition of human KYSE-520 cell growth in a cell viability assay.

[16] = system: L-428; type: functional, cell-based; conditions: Homo sapiens
Description: SANGER: Inhibition of human L-428 cell growth in a cell viability assay.

[17] = system: LAN-6; type: functional, cell-based, Homo sapiens; conditions: Homo sapiens, LAN-6;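 further: growth inhibition of LAN-6 cells, determined with a cell viability assay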
Description: SANGER: Inhibition of human LAN-6 cell growth in a cell viability assay.

[18] = system: LB1047-RCC; type: functional, cell-based, Homo sapiens; conditions: Homo sapiens, LB1047-RCC;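 further: inhibition of cell growth, determined with a cell viability assay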
Description: SANGER: Inhibition of human LB1047-RCC cell growth in a cell viability assay.

[19] = system: LU-99A; type: functional, cell-based, Homo sapiens; conditions: Homo sapiens, LU-99A;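 further: growth inhibition of LU-99A cells, read out with a cell viability assay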
Description: SANGER: Inhibition of human LU-99A cell growth in a cell viability assay.

[20] = system: ME-180; type: functional, cell-based; conditions: Homo sapiens;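 further: cell viability assay measuring growth inhibition of ME-180 cells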
Description: SANGER: Inhibition of human ME-180 cell growth in a cell viability assay.

[21] = system: MEG-01; type: functional, cell-based; conditions: Homo sapiens;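 further: growth inhibition of MEG-01 cells, read out by a cell viability assay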
Description: SANGER: Inhibition of human MEG-01 cell growth in a cell viability assay.

[22] = system: MOLT-16; type: functional, cell-based; conditions: Homo sapiens;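 further: growth inhibition of human MOLT-16 cells, read out with a cell viability assay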
Description: SANGER: Inhibition of human MOLT-16 cell growth in a cell viability assay.

[23] = system: NCI-H1770; type: functional, cell-based; conditions: Homo sapiens;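 further: growth inhibition of NCI-H1770 cells determined with a viability readout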
Description: SANGER: Inhibition of human NCI-H1770 cell growth in a cell viability assay.

[24] = system: NCI-H1838; type: functional, cell-based, Homo sapiens; conditions: Homo sapiens, NCI-H1838;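 further: growth inhibition of NCI-H1838 cells, determined with a cell viability readout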
Description: SANGER: Inhibition of human NCI-H1838 cell growth in a cell viability assay.

[25] = system: NCI-H2052; type: functional, cell-based, Homo sapiens; conditions: Homo sapiens, NCI-H2052;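 further: growth inhibition of NCI-H2052 cells, read out with a cell viability assay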
Description: SANGER: Inhibition of human NCI-H2052 cell growth in a cell viability assay.

[26] = system: NCI-H226; type: functional, cell-based, Homo sapiens; conditions: Homo sapiens, NCI-H226;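 further: cell viability read-out used to gauge growth inhibition of the cells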
Description: SANGER: Inhibition of human NCI-H226 cell growth in a cell viability assay.

[27] = system: NCI-H520; type: functional, cell-based, Homo sapiens; conditions: Homo sapiens, NCI-H520;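 further: growth inhibition of NCI-H520 cells, measured by a cell viability assay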
Description: SANGER: Inhibition of human NCI-H520 cell growth in a cell viability assay.

[28] = system: NCI-H526; type: functional, cell-based; conditions: Homo sapiens;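 further: growth inhibition of the human NCI-H526 cell line, measured by a cell viability assay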
Description: SANGER: Inhibition of human NCI-H526 cell growth in a cell viability assay.

[29] = system: NCI-H82; type: functional, cell-based; conditions: Homo sapiens;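 further: growth inhibition of NCI-H82 cells, measured with a cell viability readout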
Description: SANGER: Inhibition of human NCI-H82 cell growth in a cell viability assay.

[30] = system: OAW-28; type: functional, cell-based, Homo sapiens; conditions: Homo sapiens, OAW-28;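 further: growth inhibition of OAW-28 cells, read out with a cell viability assay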
Description: SANGER: Inhibition of human OAW-28 cell growth in a cell viability assay.

[31] = system: OE19; type: functional, cell-based, Homo sapiens; conditions: Homo sapiens, OE19;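 further: growth inhibition of OE19 cells, measured through a cell viability read-out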
Description: SANGER: Inhibition of human OE19 cell growth in a cell viability assay.

[32] = system: Panc1005; type: functional, cell-based, Homo sapiens; conditions: Homo sapiens, Panc1005;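 further: growth inhibition of human PANC-10-05 cells, measured by a cell viability assay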
Description: SANGER: Inhibition of human PANC-10-05 cell growth in a cell viability assay.

[33] = system: RERF-LC-MS; type: functional, cell-based, Homo sapiens; conditions: Homo sapiens, RERF-LC-MS;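 further: growth inhibition of human RERF-LC-MS cells, read out by a cell viability assay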
Description: SANGER: Inhibition of human RERF-LC-MS cell growth in a cell viability assay.

[34] = system: SF-295; type: functional, cell-based, Homo sapiens; conditions: Homo sapiens, SF-295; read-out: IC50;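 further: growth inhibition of SF-295 cells, read out with a cell viability assay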
Description: SANGER: Inhibition of human SF295 cell growth in a cell viability assay.

[35] = system: SK-MEL3; type: functional, cell-based, Homo sapiens, SK-MEL-3; conditions: Homo sapiens, SK-MEL3;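 further: growth inhibition of human SK-MEL-3 cells, read out with a cell viability assay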
Description: SANGER: Inhibition of human SK-MEL-3 cell growth in a cell viability assay.

[36] = system: SK-N-FI; type: functional, cell-based, Homo sapiens; conditions: Homo sapiens, SK-N-FI;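 further: cell viability assay measuring growth inhibition of human SK-N-FI cells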
Description: SANGER: Inhibition of human SK-N-FI cell growth in a cell viability assay.

[37] = system: SNB-75; type: functional, cell-based, Homo sapiens; conditions: Homo sapiens, SNB-75;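 further: cell viability assay measuring growth inhibition of human SNB-75 cells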
Description: SANGER: Inhibition of human SNB75 cell growth in a cell viability assay.

[38] = system: SW-620; type: functional, cell-based, Homo sapiens; conditions: Homo sapiens, SW-620;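 further: growth inhibition of human SW-620 cells, measured by a cell viability assay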
Description: SANGER: Inhibition of human SW620 cell growth in a cell viability assay.

[39] = system: SW948; type: functional, cell-based, Homo sapiens; conditions: Homo sapiens, SW948;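 further: growth inhibition of SW948 cells, read out with a cell viability assay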
Description: SANGER: Inhibition of human SW948 cell growth in a cell viability assay.

[40] = system: T84; type: functional, cell-based, Homo sapiens; conditions: Homo sapiens, T84;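 further: growth inhibition measured with a cell viability readout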
Description: SANGER: Inhibition of human T84 cell growth in a cell viability assay.

[41] = system: 639-V; type: functional, cell-based, Homo sapiens; conditions: Homo sapiens, 639-V;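 further: growth inhibition of 639-V cells, read out with a cell viability assay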
Description: SANGER: Inhibition of human 639-V cell growth in a cell viability assay.

[42] = system: A388; type: functional, cell-based, Homo sapiens; conditions: Homo sapiens, A388;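 further: growth inhibition of human A388 cells, read out with a cell viability assay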
Description: SANGER: Inhibition of human A388 cell growth in a cell viability assay.

[43] = system: A-431; type: functional, cell-based, Homo sapiens; conditions: Homo sapiens, A-431;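 further: growth inhibition of A-431 cells, determined with a cell viability read-out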
Description: SANGER: Inhibition of human A431 cell growth in a cell viability assay.

[44] = system: A673; type: functional, cell-based, Homo sapiens; conditions: Homo sapiens, A673;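 further: growth inhibition of human A673 cells, read out through a cell viability assay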
Description: SANGER: Inhibition of human A673 cell growth in a cell viability assay.

[45] = system: BPH-1; type: functional, cell-based, Homo sapiens; conditions: Homo sapiens, BPH-1;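 further: cell viability assay measuring growth inhibition of human BPH-1 cells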
Description: SANGER: Inhibition of human BPH-1 cell growth in a cell viability assay.

[46] = system: C8166; type: functional, cell-based; conditions: Homo sapiens;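 further: growth inhibition of human C8166 cells measured by a cell viability assay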
Description: SANGER: Inhibition of human C8166 cell growth in a cell viability assay.

[47] = system: U-118-MG; type: functional, cell-based, Homo sapiens; conditions: Homo sapiens, U-118-MG
Description: SANGER: Inhibition of human U-118-MG cell growth in a cell viability assay.

[48] = system: U-87 MG; type: functional, cell-based, U-87MG ATCC; conditions: Homo sapiens;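 further: growth inhibition of the cells measured with a viability assay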
Description: SANGER: Inhibition of human U-87-MG cell growth in a cell viability assay.

[49] = system: UACC-893; type: functional, cell-based, Homo sapiens; conditions: Homo sapiens, UACC-893
Description: SANGER: Inhibition of human UACC-893 cell growth in a cell viability assay.

[50] = system: CAMA-1; type: functional, cell-based, Homo sapiens; conditions: Homo sapiens, CAMA-1;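 further: growth inhibition of CAMA-1 cells, read out with a cell viability assay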
Description: SANGER: Inhibition of human CAMA-1 cell growth in a cell viability assay.

CC(=O)O[C@@H]1[C@@H](OC(C)=O)[C@@H](O)[C@H](Oc2c(-c3ccc(O)cc3)oc3cc(O)cc(O)c3c2=O)O[C@H]1C
IC50 [1]: > 10 µM | IC50 [2]: > 10 µM | IC50 [3]: > 10 µM | IC50 [4]: > 10 µM | IC50 [5]: > 10 µM | IC50 [6]: > 10 µM | IC50 [7]: > 10 µM | IC50 [8]: > 10 µM | IC50 [9]: > 10 µM | IC50 [10]: > 10 µM | IC50 [11]: > 10 µM | IC50 [12]: > 10 µM | IC50 [13]: > 10 µM | IC50 [14]: > 10 µM | IC50 [15]: > 10 µM | IC50 [16]: > 10 µM | IC50 [17]: > 10 µM | IC50 [18]: > 10 µM | IC50 [19]: > 10 µM | IC50 [20]: > 10 µM | IC50 [21]: > 10 µM | IC50 [22]: > 10 µM | IC50 [23]: > 10 µM | IC50 [24]: > 10 µM | IC50 [25]: > 10 µM | IC50 [26]: > 10 µM | IC50 [27]: > 10 µM | IC50 [28]: > 10 µM | IC50 [29]: 5.06 µM | IC50 [30]: > 10 µM | IC50 [31]: > 10 µM | IC50 [32]: > 10 µM | IC50 [33]: > 10 µM | IC50 [34]: > 10 µM | IC50 [35]: 7.74 µM | IC50 [36]: > 10 µM | IC50 [37]: > 10 µM | IC50 [38]: > 10 µM | IC50 [39]: > 10 µM | IC50 [40]: > 10 µM | IC50 [41]: > 10 µM | IC50 [42]: > 10 µM | IC50 [43]: > 10 µM | IC50 [44]: > 10 µM | IC50 [45]: > 10 µM | IC50 [46]: > 10 µM | IC50 [47]: > 10 µM | IC50 [48]: > 10 µM | IC50 [49]: > 10 µM | IC50 [50]: > 10 µM

COc1cc(F)c(F)c(Nc2ccc(I)cc2F)c1NS(=O)(=O)C1(CC(O)CO)CC1 (centres undefined)
IC50 [1]: > 5 µM | IC50 [2]: 2.83 µM | IC50 [3]: > 5 µM | IC50 [4]: > 5 µM | IC50 [5]: 1.18 µM | IC50 [6]: > 5 µM | IC50 [7]: > 5 µM | IC50 [8]: 1.12 µM | IC50 [9]: 0.307 µM | IC50 [10]: > 5 µM | IC50 [11]: > 5 µM | IC50 [13]: > 5 µM | IC50 [14]: > 5 µM | IC50 [15]: 2.96 µM | IC50 [16]: > 5 µM | IC50 [17]: 0.521 µM | IC50 [18]: 1.09 µM | IC50 [19]: 3.96 µM | IC50 [20]: 1.75 µM | IC50 [21]: 0.786 µM | IC50 [22]: > 5 µM | IC50 [23]: > 5 µM | IC50 [24]: > 5 µM | IC50 [25]: > 5 µM | IC50 [26]: > 5 µM | IC50 [27]: > 5 µM | IC50 [28]: > 5 µM | IC50 [29]: > 5 µM | IC50 [30]: > 5 µM | IC50 [31]: > 5 µM | IC50 [32]: > 5 µM | IC50 [33]: 1.33 µM | IC50 [34]: > 5 µM | IC50 [35]: 2.46 µM | IC50 [36]: 1.88 µM | IC50 [37]: > 5 µM | IC50 [38]: 0.276 µM | IC50 [39]: > 5 µM | IC50 [40]: > 5 µM | IC50 [41]: > 5 µM | IC50 [42]: > 5 µM | IC50 [43]: 2.92 µM | IC50 [44]: > 5 µM | IC50 [45]: 0.135 µM | IC50 [46]: > 5 µM | IC50 [47]: > 5 µM | IC50 [48]: > 5 µM | IC50 [49]: > 5 µM | IC50 [50]: > 5 µM

— ChEMBL document CHEMBL1201861, “Genomics of Drug Sensitity in Cancer screening data, Wellcome Trust Sanger Institute”
